Data reported in publication PMC8042013 (Nature Communications, 2021).

target: T1, OsCERK1-ECD (Oryza sativa, UniProt A0A0P0XII1); experiment: microscale thermophoresis, label-free; format: binding; settings: 50 mM Tris-HCl pH 7.8, 150 mM NaCl, 10 mM MgCl2, 0.05% Tween-20
T1 construct: gene CERK1; N-terminal gp67 signal peptide for secretion, C-terminal His6; baculovirus, Trichoplusia ni High Five cells; secreted soluble protein
T1 sequence (A0A0P0XII1 19-240 limits assumed): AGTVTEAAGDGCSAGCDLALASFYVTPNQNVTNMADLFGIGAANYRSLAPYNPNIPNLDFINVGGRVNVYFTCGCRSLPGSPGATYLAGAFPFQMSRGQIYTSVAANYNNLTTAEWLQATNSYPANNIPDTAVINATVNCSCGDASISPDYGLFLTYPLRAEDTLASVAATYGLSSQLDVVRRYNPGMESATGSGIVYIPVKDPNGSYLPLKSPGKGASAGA

OC[C@H]1O[C@@H](O[C@H]2[C@H](O)[C@@H](O)[C@H](O[C@H]3[C@H](O)[C@@H](O)[C@H](O[C@H]4[C@H](O)[C@@H](CO)OC(O)[C@@H]4O)O[C@@H]3CO)O[C@@H]2CO)[C@H](O)[C@@H](O)[C@@H]1O (stereo partly drawn) [BGTETB, 3^1-β-D-cellotriosyl-glucose] and OC[C@H]1O[C@@H](O[C@H]2[C@H](O)[C@@H](O)[C@H](O[C@H]3[C@H](O)[C@@H](O)[C@H](O[C@H]4[C@H](O)[C@@H](O)C(O)O[C@@H]4CO)O[C@@H]3CO)O[C@@H]2CO)[C@H](O)[C@@H](O)[C@@H]1O (some centres unmarked) [CTE, cellotetraose] are within error of each other in Kd: 2900 ± 570 nM for the first, 2840 ± 890 nM for the second.

First: OC[C@H]1O[C@@H](O[C@@H]2[C@@H](O)[C@H](O[C@H]3[C@H](O)[C@@H](O)C(O)O[C@@H]3CO)O[C@H](CO)[C@H]2O)[C@H](O)[C@@H](O)[C@@H]1O (stereo partly drawn) [BGTRIA, 3^2-β-D-glucosyl-cellobiose]
Second: OC[C@H]1O[C@@H](O[C@H]2[C@H](O)[C@@H](O)[C@H](O[C@H]3[C@H](O)[C@@H](CO)OC(O)[C@@H]3O)O[C@@H]2CO)[C@H](O)[C@@H](O)[C@@H]1O (stereo partly drawn) [BGTRIB, 3^1-β-D-cellobiosyl-glucose]
The Kd of the first is 2.2-fold higher: 4380 ± 580 nM for the first, 1950 ± 450 nM for the second. The second binds more tightly here.

In the case of OC[C@H]1O[C@@H](O[C@H]2[C@H](O)[C@@H](O)[C@H](O[C@H]3[C@H](O)[C@@H](O)C(O)O[C@@H]3CO)O[C@@H]2CO)[C@H](O)[C@@H](O)[C@@H]1O (some centres unmarked) [CTR, cellotriose], the Kd is reported as 4280 ± 1670 nM.
